Laboratory results reported in patent US11572590B2, “Methods for evaluating tumor cell spheroids using 3D microfluidic cell culture device” (Dana-Farber Cancer Institute, Inc., priority 2017, dated 2023).
Where two headings read alike, the source gives them in different places.

How the values were obtained:
Test in all cases: SelectScreen Kinase Profiling, single point inhibition and IC50 for off-target kinases
Assay type in all cases: biochemical
off-target kinases [1] = target: off-target kinases (Homo sapiens, UniProt Q13557); conditions: CAMK2D (CaMKII delta), ZLYTE, ATP Km app
Sequence of off-target kinases (Homo sapiens, UniProt Q13557) (Q13557 whole entry): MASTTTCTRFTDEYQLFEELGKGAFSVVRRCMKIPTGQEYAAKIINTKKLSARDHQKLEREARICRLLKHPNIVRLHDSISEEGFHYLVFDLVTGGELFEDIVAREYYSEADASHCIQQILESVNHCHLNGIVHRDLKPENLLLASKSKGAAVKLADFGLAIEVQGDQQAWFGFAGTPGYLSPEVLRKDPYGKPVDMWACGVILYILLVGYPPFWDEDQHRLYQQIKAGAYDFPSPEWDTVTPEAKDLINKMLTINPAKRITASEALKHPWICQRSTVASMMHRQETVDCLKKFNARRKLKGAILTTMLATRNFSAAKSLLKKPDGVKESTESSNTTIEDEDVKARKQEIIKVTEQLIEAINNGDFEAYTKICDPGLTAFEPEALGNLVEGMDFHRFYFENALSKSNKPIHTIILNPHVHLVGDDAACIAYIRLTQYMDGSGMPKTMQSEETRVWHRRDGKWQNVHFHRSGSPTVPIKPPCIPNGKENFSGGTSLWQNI

off-target kinases [2] = target: off-target kinases (Homo sapiens, UniProt P06493)
Sequence of off-target kinases (Homo sapiens, UniProt P06493) (P06493 whole entry): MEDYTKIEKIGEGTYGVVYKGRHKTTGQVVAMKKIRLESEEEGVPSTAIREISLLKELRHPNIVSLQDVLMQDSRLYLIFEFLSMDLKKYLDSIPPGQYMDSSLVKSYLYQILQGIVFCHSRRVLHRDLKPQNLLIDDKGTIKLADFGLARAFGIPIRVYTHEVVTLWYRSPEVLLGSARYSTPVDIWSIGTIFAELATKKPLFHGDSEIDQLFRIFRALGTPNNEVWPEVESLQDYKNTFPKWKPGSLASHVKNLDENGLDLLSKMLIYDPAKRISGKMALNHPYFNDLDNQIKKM

off-target kinases [3] = target: off-target kinases (Homo sapiens, UniProt P27448); conditions: MARK3, ATP Km app, ZLYTE
Sequence of off-target kinases (Homo sapiens, UniProt P27448) (P27448 whole entry): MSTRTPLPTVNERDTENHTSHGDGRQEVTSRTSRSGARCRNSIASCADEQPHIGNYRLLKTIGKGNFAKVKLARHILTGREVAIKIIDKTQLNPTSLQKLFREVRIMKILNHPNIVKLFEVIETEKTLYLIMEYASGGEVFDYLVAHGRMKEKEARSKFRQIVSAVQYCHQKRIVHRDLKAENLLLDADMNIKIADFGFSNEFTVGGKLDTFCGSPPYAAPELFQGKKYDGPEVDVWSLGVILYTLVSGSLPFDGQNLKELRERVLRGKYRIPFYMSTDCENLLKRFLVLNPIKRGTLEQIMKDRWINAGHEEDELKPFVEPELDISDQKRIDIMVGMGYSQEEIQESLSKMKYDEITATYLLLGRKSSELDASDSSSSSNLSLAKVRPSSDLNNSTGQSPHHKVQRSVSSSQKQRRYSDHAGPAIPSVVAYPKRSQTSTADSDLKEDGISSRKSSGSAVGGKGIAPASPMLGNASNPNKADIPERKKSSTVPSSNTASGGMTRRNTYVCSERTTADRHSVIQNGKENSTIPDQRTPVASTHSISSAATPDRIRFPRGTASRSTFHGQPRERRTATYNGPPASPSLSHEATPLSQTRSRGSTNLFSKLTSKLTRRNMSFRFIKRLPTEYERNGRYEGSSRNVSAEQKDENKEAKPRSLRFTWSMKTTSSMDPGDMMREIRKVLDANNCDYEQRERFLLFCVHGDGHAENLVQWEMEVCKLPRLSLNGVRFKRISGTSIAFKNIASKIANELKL

off-target kinases [4] = target: off-target kinases (Homo sapiens, UniProt P00533); conditions: EGFR (ErbB1), ZLYTE, ATP Km app
Sequence of off-target kinases (Homo sapiens, UniProt P00533) (P00533 25-1210): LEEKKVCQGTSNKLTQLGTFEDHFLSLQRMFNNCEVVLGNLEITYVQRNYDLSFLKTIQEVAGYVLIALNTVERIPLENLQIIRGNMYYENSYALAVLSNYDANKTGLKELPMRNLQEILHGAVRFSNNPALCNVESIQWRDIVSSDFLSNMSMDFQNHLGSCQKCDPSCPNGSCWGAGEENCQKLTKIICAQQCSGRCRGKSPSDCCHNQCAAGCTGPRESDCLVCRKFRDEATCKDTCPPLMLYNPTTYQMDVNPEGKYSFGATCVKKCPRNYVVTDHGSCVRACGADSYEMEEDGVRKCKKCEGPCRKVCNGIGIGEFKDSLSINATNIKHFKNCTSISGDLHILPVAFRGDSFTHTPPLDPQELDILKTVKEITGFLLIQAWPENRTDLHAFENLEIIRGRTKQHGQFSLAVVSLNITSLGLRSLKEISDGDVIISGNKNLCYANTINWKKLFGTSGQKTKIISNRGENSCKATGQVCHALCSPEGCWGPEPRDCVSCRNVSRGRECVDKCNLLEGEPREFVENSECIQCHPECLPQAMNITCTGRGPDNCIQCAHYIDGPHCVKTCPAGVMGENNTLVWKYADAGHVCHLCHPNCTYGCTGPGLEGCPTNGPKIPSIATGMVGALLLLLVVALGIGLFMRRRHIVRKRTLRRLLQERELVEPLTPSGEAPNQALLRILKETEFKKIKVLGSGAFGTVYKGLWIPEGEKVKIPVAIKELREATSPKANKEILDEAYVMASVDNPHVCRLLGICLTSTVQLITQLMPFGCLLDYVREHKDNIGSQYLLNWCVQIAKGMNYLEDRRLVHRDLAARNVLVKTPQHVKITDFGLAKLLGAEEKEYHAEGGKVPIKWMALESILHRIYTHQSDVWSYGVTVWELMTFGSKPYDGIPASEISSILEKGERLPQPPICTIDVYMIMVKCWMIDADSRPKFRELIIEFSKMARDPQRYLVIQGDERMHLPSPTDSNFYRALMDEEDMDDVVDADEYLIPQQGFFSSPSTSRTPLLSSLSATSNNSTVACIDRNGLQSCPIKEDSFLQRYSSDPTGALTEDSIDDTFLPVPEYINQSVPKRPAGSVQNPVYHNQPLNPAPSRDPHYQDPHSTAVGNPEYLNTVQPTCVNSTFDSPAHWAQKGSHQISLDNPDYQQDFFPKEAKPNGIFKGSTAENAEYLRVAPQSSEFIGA

off-target kinases [5] = target: T1, off-target kinases (Homo sapiens, UniProt Q7L7X3); conditions: TAOK1, LanthaScreen Binding
T1 sequence (Q7L7X3 1-1001): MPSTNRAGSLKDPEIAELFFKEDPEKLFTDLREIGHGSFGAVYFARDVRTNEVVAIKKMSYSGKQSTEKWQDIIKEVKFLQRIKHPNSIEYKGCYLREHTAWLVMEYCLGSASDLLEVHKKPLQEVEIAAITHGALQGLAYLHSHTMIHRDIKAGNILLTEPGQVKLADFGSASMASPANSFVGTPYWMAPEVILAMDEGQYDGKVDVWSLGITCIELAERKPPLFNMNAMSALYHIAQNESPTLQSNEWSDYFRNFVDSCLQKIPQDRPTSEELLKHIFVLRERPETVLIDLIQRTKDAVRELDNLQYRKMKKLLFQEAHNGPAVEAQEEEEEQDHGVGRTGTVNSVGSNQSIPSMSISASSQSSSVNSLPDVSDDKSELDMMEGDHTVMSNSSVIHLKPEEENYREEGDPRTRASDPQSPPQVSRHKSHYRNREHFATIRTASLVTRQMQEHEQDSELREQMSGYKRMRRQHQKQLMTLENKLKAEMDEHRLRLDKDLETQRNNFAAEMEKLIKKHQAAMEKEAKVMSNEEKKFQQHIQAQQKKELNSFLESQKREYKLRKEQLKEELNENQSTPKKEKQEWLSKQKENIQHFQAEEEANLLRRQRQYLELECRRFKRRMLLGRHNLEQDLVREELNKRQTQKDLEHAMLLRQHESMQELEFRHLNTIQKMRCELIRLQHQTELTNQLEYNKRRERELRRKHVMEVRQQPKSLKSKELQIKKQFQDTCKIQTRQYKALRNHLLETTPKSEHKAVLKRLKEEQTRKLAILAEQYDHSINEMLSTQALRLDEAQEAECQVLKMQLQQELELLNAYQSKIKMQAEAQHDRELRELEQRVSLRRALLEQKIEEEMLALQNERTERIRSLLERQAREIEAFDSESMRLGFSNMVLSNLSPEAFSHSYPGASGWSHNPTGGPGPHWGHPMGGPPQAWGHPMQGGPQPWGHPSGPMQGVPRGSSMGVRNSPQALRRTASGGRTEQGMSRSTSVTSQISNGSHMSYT

off-target kinases [6] = target: off-target kinases (Homo sapiens, UniProt Q92918); conditions: MAP4K1 (HPK1), LanthaScreen Binding
Sequence of off-target kinases (Homo sapiens, UniProt Q92918) (Q92918 whole entry): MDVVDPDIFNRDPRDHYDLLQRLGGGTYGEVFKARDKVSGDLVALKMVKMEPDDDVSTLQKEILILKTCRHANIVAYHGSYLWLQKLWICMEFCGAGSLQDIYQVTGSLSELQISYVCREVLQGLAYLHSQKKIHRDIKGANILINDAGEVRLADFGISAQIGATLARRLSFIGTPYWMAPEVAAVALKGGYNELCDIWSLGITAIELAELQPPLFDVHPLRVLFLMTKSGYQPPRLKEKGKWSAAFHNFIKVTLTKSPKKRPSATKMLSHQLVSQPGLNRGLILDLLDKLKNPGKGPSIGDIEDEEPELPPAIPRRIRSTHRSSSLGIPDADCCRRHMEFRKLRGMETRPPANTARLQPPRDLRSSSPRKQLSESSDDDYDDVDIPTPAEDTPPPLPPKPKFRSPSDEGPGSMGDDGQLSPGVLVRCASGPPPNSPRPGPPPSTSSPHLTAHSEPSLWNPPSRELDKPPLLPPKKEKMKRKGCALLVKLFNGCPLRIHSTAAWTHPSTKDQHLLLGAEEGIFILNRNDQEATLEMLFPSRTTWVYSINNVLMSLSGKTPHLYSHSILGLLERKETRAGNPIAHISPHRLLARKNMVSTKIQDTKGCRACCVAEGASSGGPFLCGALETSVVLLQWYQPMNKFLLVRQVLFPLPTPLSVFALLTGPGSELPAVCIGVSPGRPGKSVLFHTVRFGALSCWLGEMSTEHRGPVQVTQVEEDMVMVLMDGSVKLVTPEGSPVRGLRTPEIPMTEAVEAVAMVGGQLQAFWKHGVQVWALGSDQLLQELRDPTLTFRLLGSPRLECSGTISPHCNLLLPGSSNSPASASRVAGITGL

off-target kinases [7] = target: off-target kinases (Homo sapiens, UniProt Q13627); conditions: DYRK1A, ZLYTE, ATP Km app
off-target kinases [8] = target: off-target kinases (Homo sapiens, UniProt P42356); conditions: PI4KA (PI4K alpha), Adapta, ATP 10

## N#Cc1cc(-c2ncnc(Nc3ccc(N4CCN(C5COC5)CC4)cc3)n2)ccc1OC1CCOCC1 [Compound 1, 5-(4-((4-(4-(oxetan-3-yl)piperazin-1-yl)phenyl)amino)-1,3,5-triazin-2-yl)-2-((tetrahydro-2H-pyran-4-yl)oxy)benzonitrile]
off-target kinases [1]; read-out: % Inhibition 1
  inhibition: 18%
off-target kinases [1]; read-out: % Inhibition 2
  inhibition: 19%
off-target kinases [1]; read-out: % Inhibition Avg
  inhibition: 19%
off-target kinases [2]; CDK1/cyclin A2, LanthaScreen Binding, read-out: % Inhibition 1
  inhibition: 2%
off-target kinases [2]; CDK1/cyclin A2, LanthaScreen Binding, read-out: % Inhibition 2
  inhibition: 12%
off-target kinases [2]; CDK1/cyclin A2, LanthaScreen Binding, read-out: % Inhibition Avg
  inhibition: 7%
off-target kinases [2]; CDK1/cyclin B, ZLYTE, ATP Km app, read-out: % Inhibition 1
  inhibition: 16%
off-target kinases [2]; CDK1/cyclin B, ZLYTE, ATP Km app, read-out: % Inhibition 2
  inhibition: 15%
off-target kinases [2]; CDK1/cyclin B, ZLYTE, ATP Km app, read-out: % Inhibition Avg
  inhibition: 16%
off-target kinases [3]; read-out: % Inhibition 1
  inhibition: 98%
off-target kinases [3]; read-out: % Inhibition 2
  inhibition: 94%
off-target kinases [3]; read-out: % Inhibition Avg
  inhibition: 96%
off-target kinases [4]; read-out: % Inhibition 1
  inhibition: 10%
off-target kinases [4]; read-out: % Inhibition 2
  inhibition: 9%
off-target kinases [4]; read-out: % Inhibition Avg
  inhibition: 9%
off-target kinases [5]; read-out: % Inhibition 1
  inhibition: 45%
off-target kinases [5]; read-out: % Inhibition 2
  inhibition: 43%
off-target kinases [5]; read-out: % Inhibition Avg
  inhibition: 44%
off-target kinases [6]; read-out: % Inhibition 1
  inhibition: 59%
off-target kinases [6]; read-out: % Inhibition 2
  inhibition: 55%
off-target kinases [6]; read-out: % Inhibition Avg
  inhibition: 57%
off-target kinases [7]; read-out: % Inhibition 1
  inhibition: 30%
off-target kinases [7]; read-out: % Inhibition 2
  inhibition: 27%
off-target kinases [7]; read-out: % Inhibition Avg
  inhibition: 28%
off-target kinases [8]; read-out: % Inhibition 1
  inhibition: 3%
off-target kinases [8]; read-out: % Inhibition 2
  inhibition: -3%
off-target kinases [8]; read-out: % Inhibition Avg
  inhibition: 0%
